Assay results published in PMC7365685 (ACS chemical biology, 2019).
Positions count from the first letter of the chain named.

Assays:
[1] = biological target: T1, dopamine D2 receptor (D2R; D2SR; SNAP-D2SR) (Homo sapiens, UniProt P14416); assay: inhibition of forskolin-stimulated cAMP; type: cell-based; settings: functional affinity (dissociation constant of coupled receptor); partial agonist
[2] = biological target: T1, dopamine D2 receptor (D2R; D2SR; SNAP-D2SR); assay: [3H]spiperone competition binding
[3] = biological target: T1, dopamine D2 receptor (D2R; D2SR; SNAP-D2SR); assay: inhibition of forskolin-stimulated cAMP; type: cell-based; settings: functional affinity; receptor alkylation with phenoxybenzamine
N186^ECL2A D2R = N186^ECL2A D2R (Homo sapiens, UniProt P14416, N186A); assay: biochemical; design: species or system FlpIn CHO
Sequence of N186^ECL2A D2R (P14416 whole entry N186A): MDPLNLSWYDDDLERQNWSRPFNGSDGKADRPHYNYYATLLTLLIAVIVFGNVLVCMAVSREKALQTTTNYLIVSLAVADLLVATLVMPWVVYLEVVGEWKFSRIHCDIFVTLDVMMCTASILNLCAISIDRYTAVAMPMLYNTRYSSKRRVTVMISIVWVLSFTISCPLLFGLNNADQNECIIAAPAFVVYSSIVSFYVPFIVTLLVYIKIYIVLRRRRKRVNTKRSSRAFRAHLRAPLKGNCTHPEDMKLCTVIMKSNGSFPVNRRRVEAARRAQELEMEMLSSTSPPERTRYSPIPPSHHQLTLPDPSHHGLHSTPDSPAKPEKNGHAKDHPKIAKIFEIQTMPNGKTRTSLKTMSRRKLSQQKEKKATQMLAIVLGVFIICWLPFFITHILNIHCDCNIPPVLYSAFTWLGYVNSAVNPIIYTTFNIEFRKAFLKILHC

L174^ECL2A D2R = L174^ECL2A D2R (Homo sapiens, UniProt P14416, L174A); assay: biochemical; design: species or system FlpIn CHO
Sequence of L174^ECL2A D2R (P14416 whole entry L174A): as the sequence (P14416 whole entry N186A) above, with L174A, A186N counted along it

I122^3.40A D2R = biological target: T2, I122^3.40A D2R (Homo sapiens, UniProt P14416, I122A); assay: biochemical; design: species or system FlpIn CHO
T2 sequence (P14416 1-443 I122A): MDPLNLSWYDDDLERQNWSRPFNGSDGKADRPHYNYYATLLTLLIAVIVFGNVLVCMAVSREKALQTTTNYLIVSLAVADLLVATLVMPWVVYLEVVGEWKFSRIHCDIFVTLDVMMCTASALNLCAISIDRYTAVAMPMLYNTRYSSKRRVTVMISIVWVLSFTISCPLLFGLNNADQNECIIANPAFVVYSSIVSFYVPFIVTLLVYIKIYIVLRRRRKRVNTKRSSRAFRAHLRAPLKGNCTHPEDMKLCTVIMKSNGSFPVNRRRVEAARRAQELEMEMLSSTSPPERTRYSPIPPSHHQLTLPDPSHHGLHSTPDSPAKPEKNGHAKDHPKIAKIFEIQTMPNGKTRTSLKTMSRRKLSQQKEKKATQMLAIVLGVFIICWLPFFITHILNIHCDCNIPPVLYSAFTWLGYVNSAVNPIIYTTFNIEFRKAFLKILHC

[4] = biological target: dopamine D2 receptor (D2R; D2SR; SNAP-D2SR) (Homo sapiens, UniProt P14416, F110A); assay: biochemical
Sequence of dopamine D2 receptor (D2R; D2SR; SNAP-D2SR) (Homo sapiens, UniProt P14416, F110A) (P14416 1-414 isoform P14416-2 F110A): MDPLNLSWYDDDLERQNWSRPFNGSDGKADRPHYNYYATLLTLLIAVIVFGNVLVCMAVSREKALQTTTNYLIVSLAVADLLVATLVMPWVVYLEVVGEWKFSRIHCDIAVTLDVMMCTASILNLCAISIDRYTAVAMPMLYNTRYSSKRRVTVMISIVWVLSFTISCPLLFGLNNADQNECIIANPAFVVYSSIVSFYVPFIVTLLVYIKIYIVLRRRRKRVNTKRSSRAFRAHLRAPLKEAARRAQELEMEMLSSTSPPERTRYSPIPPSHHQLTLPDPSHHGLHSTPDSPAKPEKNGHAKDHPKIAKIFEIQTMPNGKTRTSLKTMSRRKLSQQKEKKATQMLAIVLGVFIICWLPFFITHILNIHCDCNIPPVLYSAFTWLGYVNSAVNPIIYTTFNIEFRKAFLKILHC

[5] = biological target: dopamine D2 receptor (D2R; D2SR; SNAP-D2SR) (Homo sapiens, UniProt P14416, S193A); assay: biochemical
Sequence of dopamine D2 receptor (D2R; D2SR; SNAP-D2SR) (Homo sapiens, UniProt P14416, S193A) (P14416 1-414 isoform P14416-2 S193A): as the sequence (P14416 1-414 isoform P14416-2 F110A) above, with A110F, S193A counted along it

V115^3.33A D2R = biological target: T3, V115^3.33A D2R (Homo sapiens, UniProt P14416, V115A); assay: biochemical
T3 sequence (P14416 1-443 V115A): T2 sequence (P14416 1-443 I122A) with V115A, A122I

C118^3.36A D2R = biological target: T4, C118^3.36A D2R (Homo sapiens, UniProt P14416, C118A); assay: biochemical
T4 sequence (P14416 1-443 C118A): T2 sequence (P14416 1-443 I122A) with C118A, A122I

E181^ECL2A D2R = E181^ECL2A D2R (Homo sapiens, UniProt P14416, E181A); assay: biochemical
Sequence of E181^ECL2A D2R (P14416 whole entry E181A): as the sequence (P14416 whole entry N186A) above, with E181A, A186N counted along it

[6] = biological target: dopamine D2 receptor (D2R; D2SR; SNAP-D2SR) (Homo sapiens, UniProt P14416, F202A); assay: biochemical
Sequence of dopamine D2 receptor (D2R; D2SR; SNAP-D2SR) (Homo sapiens, UniProt P14416, F202A) (P14416 1-414 isoform P14416-2 F202A): as the sequence (P14416 1-414 isoform P14416-2 F110A) above, with A110F, F202A counted along it

S197^5.46A D2R = S197^5.46A D2R (Homo sapiens, UniProt P14416, S197A); assay: biochemical
Sequence of S197^5.46A D2R (P14416 whole entry S197A): as the sequence (P14416 whole entry N186A) above, with A186N, S197A counted along it

I183^ECL2A D2R = I183^ECL2A D2R (Homo sapiens, UniProt P14416, I183A); assay: biochemical
Sequence of I183^ECL2A D2R (P14416 whole entry I183A): as the sequence (P14416 whole entry N186A) above, with I183A, A186N counted along it

T119^3.37A D2R = biological target: T5, T119^3.37A D2R (Homo sapiens, UniProt P14416, T119A); assay: biochemical
T5 sequence (P14416 1-443 T119A): T2 sequence (P14416 1-443 I122A) with T119A, A122I

T1 sequence (P14416 1-414 isoform P14416-2): as the sequence (P14416 1-414 isoform P14416-2 F110A) above, with A110F counted along it

SMILES: Clc1cccc(N2CCNCC2)c1Cl [compound 1, DCPP]
- cAMP (BRET Biosensor) / pKA [1]: 6.49 ± 0.18
- Ki [2]: 0.575 µM

SMILES: CCCN1CCN(c2cccc(Cl)c2Cl)CC1 [compound 2]
- Ki [2]: 0.0182 µM

SMILES: CCCCN1CCN(c2cccc(Cl)c2Cl)CC1 [compound 3]
- Ki [2]: 0.00501 µM

SMILES: COCCCCN1CCN(c2cccc(Cl)c2Cl)CC1 [compound 4]
- Ki [2]: 0.02 µM

SMILES: CCCCN1CCN(c2ccccc2OC)CC1 [compound 12]
- Ki [2]: 0.0933 µM

SMILES: NCCc1ccc(O)c(O)c1 [dopamine]
- pKA [3]: determine the functional affinity and efficacy of dopamine and ropinirole

SMILES: CCCN(CCC)CCc1cccc2c1CC(=O)N2 [ropinirole]
- pKA [3]: determine the functional affinity and efficacy of dopamine and ropinirole
- Ki [2]: 6.61 µM
- Ki (N186^ECL2A D2R): 9.77 µM
- Ki (L174^ECL2A D2R): 2.24 µM
- Ki (I122^3.40A D2R): 7.76 µM
- Ki [4]: 42.7 µM
- Ki [5]: 100 µM
- Ki (V115^3.33A D2R): 18.6 µM
- Ki (C118^3.36A D2R): 3.72 µM
- Ki (E181^ECL2A D2R): 3.02 µM
- Ki [6]: 12.3 µM
- Ki (S197^5.46A D2R): 8.51 µM
- Ki (I183^ECL2A D2R): 3.16 µM
- Ki (T119^3.37A D2R): 4.27 µM
